How the values were obtained:
[1] = tested on: tissue factor mRNA in kidneys of LPS-dosed mice; assay: Assay of tissue factor mRNA using LPS-dosed mouse (kidney); format: in vivo; settings: male C57BL/6J mice, 10 mg/kg oral once a day for 7 days; LPS 4 mg/kg i.p., kidneys 6 hours later; PG/Tween only = 100
Procedure: Test compounds were dissolved in a solution comprising a 4:1 mixture of propylene glycol (Wako Pure Chemical Industries) and Tween 80 (Kao) (hereinafter PG/Tween) followed by oral administration by gavage for 7 days at 10 mg/kg once a day in the evening to male C57BL/6J mice (Charles River). LPS was administered intraperitoneally at 4 mg/kg at 9:00 AM on the day following the 7th day of administration of PG/Tween, after which the animals were laparotomized under ether anesthesia 6 hours later to excise the kidneys. RNA was extracted from the kidneys using Trizol reagent (Invitrogen). After carrying out a reverse transcription reaction on the resulting RNA using the First-Strand cDNA Synthesis Kit, the expressed amounts of tissue factor mRNA and cyclophilin mRNA were measured in the same manner as the aforementioned Test Example 1. The expressed amounts of tissue factor mRNA for the test compounds when administered at a concentration of 10 mg/kg based on a value of 100 for the expressed amount of tissue factor mRNA in a case of administration of PG/Tween only are shown in Table 8.

[2] = tested on: tissue factor mRNA in LPS-stimulated mouse peritoneal macrophages; assay: Assay of mouse peritoneal macrophage tissue factor mRNA; format: cell-based; settings: 18 h, then LPS 100 ng/ml for 6 h, relative to cyclophilin mRNA, DMSO treatment = 100, read-out: Expressed Amount of Tissue Factor mRNA; for mrna remaining at 1 µM: test compound 1 μM; for mrna remaining at 10 µM: test compound 10 μM
Procedure: 3 ml of thioglycolate (Sigma Chemical) were administered into the abdominal cavity of male C57BL/6J mice (Charles River) followed 4 days later by intraperitoneal administration of 10 ml of phosphate-buffered saline (hereinafter PBS) containing heparin (Hishiyama Pharmaceutical) at a concentration of 5 U/ml and recovery of intraperitoneal macrophages using a syringe. After centrifuging the recovered macrophages at 1000 rpm and 4° C. for 5 minutes, the supernatant was discarded followed by suspending in RPMI 1640 medium (Gibco Laboratories) containing normal fetal bovine serum (hereinafter FBS) at a concentration of 10%. The macrophages were adjusted to a concentration of 4×10^6 cells/ml, disseminated in 1 ml aliquots in a 12-well plate, and cultured for 3 hours at 37° C. using a CO2 incubator. Subsequently, the cells were washed with PBS, and the medium was replaced with RPMI medium containing lipoprotein-deficient serum (hereinafter LPDS) (Sigma Chemical) at a concentration of 5%. Test compounds dissolved in dimethylsulfoxide (DMSO) at a concentration of 1 μM were added to make a final DMSO concentration of 0.1%, and after warming for 18 hours at 37° C., lipopolysaccharide (hereinafter LPS) (Sigma Chemical) was added to make a concentration of 100 ng/ml. The cells were recovered 6 hours later, RNA was extracted using the Rneasy Mini Kit (Qiagen), and after carrying out a reverse transcription reaction using the First-Strand cDNA Synthesis Kit (Amersham Biosciences), the expressed amounts of tissue factor mRNA and cyclophylin mRNA were measured by quantitative RT-PCR (TaqMan, Applied Biosystems 7700 Sequence Detector).
Quantitative RT-PCR for tissue factor was carried out using the aforementioned TF-1 and TF-2 as primers and TF-P as probes, while quantitative PCR for cyclophilin was carried out using the aforementioned Cyl-1 and Cyl-2 as primers and Cyl-P as probes. Both were carried out by warming for 2 minutes at 50° C. and then for 10 minutes at 95° C., followed by 40 warming cycles consisting of warming for 15 seconds at 95° C. and then for 1 minute at 60° C. The expressed amount of tissue factor mRNA was calculated as a relative value of the expressed amount of cyclophilin mRNA. The expressed amounts of tissue factor mRNA resulting from the test compounds at a concentration of 1 μM or 10 μM based on a value of 100 for the expressed amount of tissue factor mRNA in a case of treatment with DMSO at a concentration of […] are shown in Table 7.

| SMILES | Expressed Amount of Tissue Factor mRNA [1] | mrna remaining at 1 µM [2] [%] | mrna remaining at 10 µM [2] [%] |
| --- | --- | --- | --- |
| O=C(O)Cc1cccc(OCCCN(Cc2cccc(C(F)(F)F)c2Cl)CC(c2ccccc2)c2ccccc2)c1 [Compound C, 2-(3-{3-[[2-Chloro-3-(trifluoromethyl)benzyl](2,2-diphenylethyl)amino]propoxy}-phenyl)acetic acid, reference compound] | 54.1 | 68.8 | – |
| COc1cc2nc(Cc3ccccc3)n(-c3ccc(C(O)(C(F)(F)F)C(F)(F)F)cc3)c(=O)c2cc1OC [Compound D, 2-Benzyl-6,7-dimethoxy-3-[4-[2,2,2-trifluoro-1-hydroxy-1-(trifluoromethyl)ethyl]phenyl]-4(3H)-quinazolinone] | 63.5 | 39 | – |
| CC(C)(C)OC(=O)c1c(COc2ccc(-c3ccc(C(CO)C(=O)O)cc3)cc2)ccc(C(F)(F)F)c1O (stereo not shown) [Reference Example 32, 2-(4′-{[2-(tert-Butoxycarbonyl)-3-hydroxy-4-(trifluoromethyl)benzyl]oxy}-1,1′-biphenyl-4-yl)-3-hydroxypropanoic acid] | – | – | 48.5 |
| CC(C)c1cc(CC(=O)O)ccc1-c1ccc(OCc2ccc(C(F)(F)F)c(O)c2C(=O)OC(C)(C)C)cc1 [Reference Example 33, (4′-{[2-(tert-Butoxycarbonyl)-3-hydroxy-4-(trifluoromethyl)benzyl]oxy}-2-isopropyl-1,1′-biphenyl-4-yl)acetic acid] | – | – | 37.2 |
| CC(C)(C)OC(=O)c1c(COc2ccc(-c3ccc(C(=O)O)cc3)cc2)ccc(C(F)(F)F)c1O [Reference Example 34, 4′-{[2-(tert-Butoxycarbonyl)-3-hydroxy-4-(trifluoromethyl)benzyl]oxy}-1,1′-biphenyl-4-carboxylic acid] | – | – | 39 |

Reference: patent publication US20080255111A1, “Tissue Factor Production Inhibitor” (SANKYO COMPANY LIMITED, priority 2004, published 2008)
